This note sets out measurements from patent publication US8835470B2, “Mandelamide heterocyclic compounds” (Bristol-Myers Squibb Company, priority 2010, dated 2014).

For assay [1], the target named is T1, S1P1 (Homo sapiens (Human), UniProt P21453). As to the kind of experiment: Receptor [35S] GTPγS Binding Assay, S1P1. In kind it is biochemical. Conditions: for EC50: membranes from S1P1/CHO cells, [35S]GTP; for GTPγS S1P3/S1P1: ratio of GTPγS S1P3 EC50 to GTPγS S1P1 EC50, * and ** S1P3 value at detection limit. How it is done: (§1) Receptor [35S] GTPγS Binding Assays
(§2) Membranes prepared from S1P1/CHO cells or EDG3-Ga15-bla HEK293T cells were added to the compound plate (40 μl/well, final protein 3 μg/well) with MULTIDROP®. [^35S]GTP (1250 Ci/mmol, Perkin Elmer) was diluted in assay buffer: 20 mM HEPES, pH7.5, 10 mM MgCl2, 150 mM NaCl, 1 mM EGTA, 1 mM DTT, 10 μM GDP, 0.1% fatty acid free BSA, and 10 μg/ml Saponin to 0.4 nM. 40 μl of the [^35S] GTP solution was added to the compound plate with a final concentration of 0.2 nM. The reaction was kept at room temperature for 45 min. At the end of incubation, all the mixtures in the compound plate were transferred to a 384 well FB filter plates via GPCR robot system. The filter plate was washed with water 4 times by using the modified manifold Embla plate washer and dried at 60° C. for 45 min. 30 μl of MicroScint 20 scintillation fluid was added to each well for counting at Packard TOPCOUNT®.
A larger value for the GTPγS S1P3 EC50 value indicated less activity in the GTPγS S1P3 binding assay.
In general terms: Binding of GTPγS marks nucleotide exchange on a G protein.

The target of assay [2] is S1P3 (Homo sapiens (Human), UniProt Q99500). Nature of the assay: Receptor [35S] GTPγS Binding Assay, S1P3. Conditions: membranes from EDG3-Ga15-bla HEK293T cells; * detection limit 62,500 nM, ** detection limit 32,500 nM. In kind it is biochemical. How it is done:
as §1
as §2, with “Compounds were loaded in a 384 FALCON® v-bottom plate (0.5 μl/well in a 3-fold dilution). Membranes” for “Membranes”, “TOPCOUNT®. EC50 is defined as the agonist concentration that corresponds to 50% of the Ymax (maximal response) obtained for each individual compound tested.” for “TOPCOUNT®.”
A smaller value for GTPγS S1P1 EC50 value indicated greater activity for the compound in the GTPγS S1P1 binding assay. A larger value for the GTPγS S1P3 EC50 value indicated less activity in the GTPγS S1P3 binding assay.

Assay [3] concerns the target T1, S1P1. As to the kind of experiment: S1P1 Binding Assay. The following applies: membranes from CHO cells expressing human S1P1; 33P-S1P ligand; rounded to two digits. On the procedure:
Membranes were prepared from CHO cells expressing human S1P1. Cells were dissociated in buffer containing 20 mM HEPES, pH 7.5, 50 mM NaCl, 2 mM EDTA and Protease Inhibitor cocktail (Roche), and disrupted on ice using the Polytron homogenizer. The homogenate was centrifuged at 20,000 rpm (48,000 G) and the supernatant was discarded. The membrane pellets were resuspended in buffer containing 50 mM HEPES, pH 7.5, 100 mM NaCl, 1 mM MgCl2, 2 mM EDTA and stored in aliquots at −80° C. after protein concentration determination. Membranes (2 μg/well) and 0.03 nM final concentration of ^33P-S1P ligand (1 mCi/ml, American Radiolabeled Chemicals) were added to the compound plates. Binding was performed for 45 minutes at room temperature, terminated by collecting the membranes onto GF/B filter plates, and radioactivity was measured by TOPCOUNT®. The competition data of the test compounds over a range of concentrations was plotted as percentage inhibition of radioligand specific binding. The IC50 is defined as the concentration of competing ligand needed to reduce specific binding by 50%.
The results in Table A were rounded to two digits.

S1P3, sequence (Q99500 whole entry): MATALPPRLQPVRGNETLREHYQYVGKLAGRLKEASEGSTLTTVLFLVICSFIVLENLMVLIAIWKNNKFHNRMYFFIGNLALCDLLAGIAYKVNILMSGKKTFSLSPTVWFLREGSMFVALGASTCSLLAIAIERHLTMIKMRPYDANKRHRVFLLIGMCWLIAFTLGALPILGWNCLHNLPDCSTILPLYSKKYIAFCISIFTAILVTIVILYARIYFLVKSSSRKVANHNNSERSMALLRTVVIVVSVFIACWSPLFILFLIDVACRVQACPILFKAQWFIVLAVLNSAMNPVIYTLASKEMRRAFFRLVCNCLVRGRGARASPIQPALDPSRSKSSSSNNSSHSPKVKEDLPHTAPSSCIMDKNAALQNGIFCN
T1 sequence (P21453 whole entry): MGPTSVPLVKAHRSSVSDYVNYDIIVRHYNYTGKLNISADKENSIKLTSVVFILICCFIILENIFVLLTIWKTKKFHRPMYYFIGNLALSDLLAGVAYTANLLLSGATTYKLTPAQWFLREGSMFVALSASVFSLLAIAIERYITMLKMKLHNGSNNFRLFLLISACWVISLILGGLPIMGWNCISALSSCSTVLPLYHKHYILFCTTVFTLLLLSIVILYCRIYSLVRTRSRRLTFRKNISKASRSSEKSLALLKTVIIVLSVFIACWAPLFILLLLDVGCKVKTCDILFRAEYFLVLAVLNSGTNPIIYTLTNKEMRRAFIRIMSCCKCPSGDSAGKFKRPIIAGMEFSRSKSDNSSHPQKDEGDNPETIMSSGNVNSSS

What is called EC50 is the concentration that produces a half-maximal response. Lower therefore signals a more potent agent. The term IC50 denotes the concentration that gives 50% inhibition. A lower IC50 goes with inhibition by little substance. Take `O=C(NC[C@@H]1CCCC[C@H]1O)C(O)c1ccc(-c2noc(-c3cnn(-c4ccccc4)c3C(F)(F)F)n2)cc1` (mixture of isomers) [Example 152, (R/S)-2-hydroxy-N-(((1S,2R)-2-hydroxycyclohexyl)methyl)-2-(4-(5-(1-phenyl-5-(trifluoromethyl)-1H-pyrazol-4-yl)-1,2,4-oxadiazol-3-yl)phenyl)acetamide]: in assay [1], it took 517 nM to reach a half-maximal effect (EC50) and the “GTPγS S1P3/S1P1” value stood at 22. The compound further yielded a 50% effective concentration (EC50) in assay [2] of 11200 nM. Also, in assay [3], the IC50 worked out at 260 nM.

Turning to `Cc1nnc(CNC(=O)C(O)c2ccc(-c3noc(-c4onc(-c5ccccc5)c4C(F)(F)F)n3)cc2)o1` (single isomer, unassigned) [Example 10, 2-Hydroxy-N-((5-methyl-1,3,4-oxadiazol-2-yl)methyl)-2-(4-(5-(3-phenyl-4-(trifluoromethyl)isoxazol-5-yl)-1,2,4-oxadiazol-3-yl)phenyl)acetamide], in assay [1], the EC50 worked out at 4.7 nM and the “GTPγS S1P3/S1P1” value amounted to 2795. In assay [2], the 50% effective concentration (EC50) amounted to 13100 nM. This compound also yielded an IC50 in assay [3] of 2 nM.

As for `CNC(=O)[C@H](C)NC(=O)C(O)c1ccc(-c2noc(-c3onc(-c4ccccc4)c3C(F)(F)F)n2)cc1` (mixture of isomers) [Example 32, (R/S)-2-(2-Hydroxy-2-(4-(5-(3-phenyl-4-(trifluoromethyl)isoxazol-5-yl)-1,2,4-oxadiazol-3-yl)phenyl)acetamido)-N-methyl(S)propanamide], in assay [1], it took 1.5 nM to reach a half-maximal effect (EC50) and the “GTPγS S1P3/S1P1” value amounted to 10707. For the same compound, a half-maximal response in assay [2] (EC50) required 16100 nM. In addition, in assay [3], the IC50 was 2.6 nM.

Consider `O=C(NCc1nc2ccccc2[nH]1)C(O)c1ccc(-c2noc(-c3onc(-c4ccccc4)c3C(F)(F)F)n2)cc1` (racemic) [Example 90, (R/S)-N-((1H-Benzo[d]imidazol-2-yl)methyl)-2-hydroxy-2-(4-(5-(3-phenyl-4-(trifluoromethyl)isoxazol-5-yl)-1,2,4-oxadiazol-3-yl)phenyl)acetamide], for which, in assay [1], the concentration for a half-maximal effect (EC50) is 31.5 nM and the “GTPγS S1P3/S1P1” value is reported as 171. The same compound had a half-maximal effective concentration (EC50) in assay [2] of 5380 nM. Also, the 50% inhibitory concentration (IC50) in assay [3] was 13 nM.

For the compound `CCNC(=O)C(O)c1ccc(-c2noc(-c3cnn(-c4ccccc4)c3C(F)(F)F)n2)cc1` (racemic) [Example 61, (R/S)-N-Ethyl-2-hydroxy-2-(4-(5-(1-phenyl-5-(trifluoromethyl)-1H-pyrazol-4-yl)-1,2,4-oxadiazol-3-yl)phenyl)acetamide], in assay [1], the EC50 was 34.2 nM and the “GTPγS S1P3/S1P1” value is given as > 1827*. The compound also yielded an EC50 in assay [2] above 62500 nM. The compound further yielded a half-inhibitory concentration (IC50) in assay [3] of 8.5 nM.

On to `CCNC(=O)C(O)c1ccc(-c2noc(-c3noc(-c4ccccc4)c3C(F)(F)F)n2)cc1` (racemic) [Example 67, (R/S)-N-Ethyl-2-hydroxy-2-(4-(5-(5-phenyl-4-(trifluoromethyl)isoxazol-3-yl)-1,2,4-oxadiazol-3-yl)phenyl)acetamide], for which, in assay [1], a half-maximal effect (EC50) was put at 17.4 nM and the “GTPγS S1P3/S1P1” value was 1006. In assay [2], this compound registered an EC50 of 17500 nM. The compound further came in with a 50% inhibitory concentration (IC50) in assay [3] of 17 nM.

Take `O=C(NCc1cc2ccccc2[nH]1)C(O)c1ccc(-c2noc(-c3onc(-c4ccccc4)c3C(F)(F)F)n2)cc1` (racemic) [Example 86, (R/S)-N-((1H-Indol-2-yl)methyl)-2-hydroxy-2-(4-(5-(3-phenyl-4-(trifluoromethyl)isoxazol-5-yl)-1,2,4-oxadiazol-3-yl)phenyl)acetamide]: in assay [1], the midpoint of the response, the EC50, lay at 1560 nM and the “GTPγS S1P3/S1P1” value was > 20**. For the same compound, the 50% effective concentration (EC50) in assay [2] was above 31200 nM. The concentration for half-maximal inhibition (IC50) in assay [3] came to 180 nM.

Take `O=C(NCCO)C(O)c1ccc(-c2noc(-c3noc(-c4ccccc4)c3C(F)(F)F)n2)cc1` (racemic) [Example 62, (R/S)-2-Hydroxy-N-(2-hydroxyethyl)-2-(4-(5-(5-phenyl-4-(trifluoromethyl)isoxazol-3-yl)-1,2,4-oxadiazol-3-yl)phenyl)acetamide]: the EC50 in assay [1] stood at 12.6 nM; in assay [2], 9210 nM. For the same compound, the “GTPγS S1P3/S1P1” value in assay [1] is listed as 731. This compound displayed an IC50 in assay [3] of 3.2 nM.

For the compound `CCN(C)C(=O)C(O)c1ccc(-c2noc(-c3onc(-c4ccccc4)c3C(F)(F)F)n2)cc1` (racemic) [Example 24, (R/S)-N-Ethyl-2-hydroxy-N-methyl-2-(4-(5-(3-phenyl-4-(trifluoromethyl)isoxazol-5-yl)-1,2,4-oxadiazol-3-yl)phenyl)acetamide], the concentration for a half-maximal effect (EC50) in assay [1] is 1050 nM; in assay [2], above 62500 nM. Further, the “GTPγS S1P3/S1P1” value in assay [1] is reported as > 60*. In addition, the half-maximal inhibitory concentration (IC50) in assay [3] was determined as 350 nM.

As for `O=C(NC1CCC1)C(O)c1ccc(-c2noc(-c3onc(-c4ccccc4)c3C(F)(F)F)n2)cc1` (racemic) [Example 116, (R/S)-N-Cyclobutyl-2-hydroxy-2-(4-(5-(3-phenyl-4-(trifluoromethyl)isoxazol-5-yl)-1,2,4-oxadiazol-3-yl)phenyl)acetamide], the “GTPγS S1P3/S1P1” value in assay [1] is given as > 387*. The same compound came in with a concentration for a half-maximal effect (EC50) in assay [2] above 62500 nM.

Turning to `O=C(NCc1cnco1)C(O)c1ccc(-c2noc(-c3onc(-c4ccccc4)c3C(F)(F)F)n2)cc1` (racemic) [Example 126, (R/S)-2-hydroxy-N-(oxazol-5-ylmethyl)-2-(4-(5-(3-phenyl-4-(trifluoromethyl)isoxazol-5-yl)-1,2,4-oxadiazol-3-yl)phenyl)acetamide], the EC50 came out at 13.6 nM in assay [1] and 20200 nM in assay [2]. For the same compound, the “GTPγS S1P3/S1P1” value in assay [1] turned out to be 1484. For the same compound, in assay [3], the IC50 worked out at 2.1 nM.

As to `O=C(O)CCNC(=O)C(O)c1ccc(-c2noc(-c3onc(-c4ccccc4)c3C(F)(F)F)n2)cc1` (racemic) [Example 22, (R/S)-3-(2-Hydroxy-2-(4-(5-(3-phenyl-4-(trifluoromethyl)isoxazol-5-yl)-1,2,4-oxadiazol-3-yl)phenyl)acetamido)propanoic acid], in assay [1], the EC50 came out at 103 nM and the “GTPγS S1P3/S1P1” value is > 604*. This compound came in with an EC50 in assay [2] above 62500 nM. This compound also registered an IC50 in assay [3] of 29 nM.

Take `Cn1cccc1CNC(=O)C(O)c1ccc(-c2noc(-c3onc(-c4ccccc4)c3C(F)(F)F)n2)cc1` (racemic) [Example 132, (R/S)-2-hydroxy-N-((1-methyl-1H-pyrrol-2-yl)methyl)-2-(4-(5-(3-phenyl-4-(trifluoromethyl)isoxazol-5-yl)-1,2,4-oxadiazol-3-yl)phenyl)acetamide]: the EC50 in assay [1] amounted to 636 nM; in assay [2] it was 17100 nM. In assay [1], the “GTPγS S1P3/S1P1” value was 27. Also, in assay [3], the IC50 turned out to be 42 nM.

Take `CNC(=O)[C@H](CCc1ccccc1)NC(=O)C(O)c1ccc(-c2noc(-c3onc(-c4ccccc4)c3C(F)(F)F)n2)cc1` (mixture of isomers) [Example 26, (R/S)-(2S)-2-(2-Hydroxy-2-(4-(5-(3-phenyl-4-(trifluoromethyl)isoxazol-5-yl)-1,2,4-oxadiazol-3-yl)phenyl)acetamido)-N-methyl-4-phenylbutanamide]: the 50% effective concentration (EC50) in assay [1] is 4280 nM; in assay [2], 6200 nM. For the same compound, in assay [1], the “GTPγS S1P3/S1P1” value was 1.4. In assay [3], this compound registered an IC50 of 910 nM.
